# Laboratory results from patent US10220029B2, “Pharmaceutical composition comprising glutarimide derivatives and use thereof in the treatment of eosinophilic diseases” (OBSCHESTVO S ORGANICHENNOI OTVETSTVENNOSTIYU …, priority 2013, dated 2019).
# Marks after values point to notes of the source that are not given here.
# Experiments:
# [1] = tested on: model of sephadex-induced eosinophilic lung inflammation in rats; test: Content of cell elements in BAL in the model of sephadex-induced eosinophilic lung inflammation in rats; format: in vivo, male Wistar rats; conditions: Table 8; 0.5 mg/kg by inhalation, four times (reference preparation); BAL 48 hours after sephadex; n = 10
# Experimental: The model of sephadex-induced eosinophilic lung inflammation in rats was realized by a standard method [Evaldsson C, Rydén I, Uppugunduri S. Isomaltitol exacerbates neutrophilia but reduces eosinophilia: new insights into the sephadex model of lung inflammation//Int Arch Allergy Immunol. 2011; 154(4):286-94]. Sephadex G-200 (Pharmacia, Sweden) was administered one time by inhalation to male Wistar rats at a dose of 5 mg/kg. The studied compounds were administered to the animals by the intragastric route four times: 24 hours and 1 hour before and 24 hours and 45 hours after administration of sephadex. The reference preparation, budesonide, was administered according to the same scheme, by inhalation at a dose of 0.5 mg/kg. Bronchoalveolar lavage was taken 48 hours after the inhalation of sephadex, and the total lymphocyte count and leukocyte formula in the lavage were determined. The number of rats in a group was 7 to 10.
# [2] = tested on: model of bronchial asthma in guinea pigs; test: Content of cell elements in BAL in the model of bronchial asthma in guinea pigs; format: in vivo, guinea pig
# Experimental: (§1) Bronchial asthma in guinea pigs was induced by a standard method [Ricciardolo F L, Nijkamp F, De Rose V, Folkerts G. The guinea pig as an animal model for asthma// Current Drug Targets. 2008 June; 9(6):452-65]. The animals were immunized by one parenteral administration of 0.5 mL of a solution comprising 100 μg/mL ovalbumin (Sigma) and 100 mg/mL aluminium hydroxide. Intact animals received a physiological saline solution in an amount of 0.5 mL.
# (§2) On days 29, 30 and 31, hyperactivity of the respiratory airways was provoked by inhalation administration of ovalbumin in ascending concentrations of 0.1, 0.3, and 0.5 mg/mL on days 1, 2, and 3 of the provocation, respectively. The inhalation lasted 5 minutes or until asphyxia symptoms became apparent (fall to one side). On day 32, the animals received a challenging dose of ovalbumin (1 mg/mL) for 5 minutes, while assessing a bronchospastic reaction.
# (§3) The studied compounds were administered to the animals once daily every day for 6 or 10 days; the administration was terminated two days before the administration of the challenging dose of antigen.
# (§4) The bronchoalveolar lavage (BAL) and cardiac cavity blood were derived from the animals 24 hours after administration of the challenging dose. The BAL was collected under anesthesia by lavaging the lungs with 5 mL of a physiological saline solution heated to 37° C. through the trachea, using a syringe dosing device.
# The absolute number of cell elements in 1 μL of the lavage (cytosis) was counted in the bronchoalveolar lavage, using the Goryaev camera. Then, the BAL was centrifuged at 200 g for 10 minutes. The residue was used to prepare swabs that were fixed in methanol and stained according to Romanovsky-Giemsa to count endopulmonary cytogram.
# (§5) The study comprised 3 experiments, wherein the first one was directed to the evaluation of the effect of claimed compounds 1-6 on the cell composition of the BAL, the second and the third experiments were aimed at evaluating the effect of compounds 1 and 2 on the cell composition of the BAL, the cell composition of the blood, and on the bronchospasm severity.
# [3] = tested on: model of bronchial asthma in guinea pigs; test: Content of cell elements in the blood in the model of bronchial asthma in guinea pigs; format: in vivo, guinea pig; conditions: Table 6 Experiment No. 2, 6 times, n = 8
# Experimental: as §1, §2, §3, §4
# The blood was analyzed with a hemocytometer to determine leykoformula.
# as §5
# [4] = tested on: model of bronchial asthma in guinea pigs; test: Severity of bronchospasm in the model of bronchial asthma in guinea pigs; format: in vivo, guinea pig; conditions: Experiment No. 2, 6 times, n = 8
# Experimental: as §1, §2, §3
# The bronchospastic reaction was assessed by a change in the rate and depth of the respiratory movements and by the asphyxia symptom such as fall to one side. Spirogram was registered by laboratory experimental equipment (ADInstruments, Australia), using a base recording station (PowerLab 8sp.) and software LabCart. The registration was made using airflow sensors for laboratory animals and a spirograph with an integrated amplifier (ADInstruments).
# as §5
# [5] = tested on: model of leukotriene-induced eosinophilic lung inflammation in guinea pigs; test: Content of cell elements in BAL in the model of leukotriene-induced eosinophilic lung inflammation in guinea pigs; format: in vivo, guinea pig; conditions: 0.8 mg/kg intragastric, one time one hour before LTD4 (reference preparation); BAL 48 hours after LTD4; n = 8
# Description: The model of leukotriene-induced eosinophilic lung inflammation in guinea pigs was realized by a standard method [Underwood DC1, Osborn R R, Newsholme S J, Torphy T J, Hay D W. Persistent airway eosinophilia after leukotriene (LT) D4 administration in the guinea pig: modulation by the LTD4 receptor antagonist, pranlukast, or an interleukin-5 monoclonal antibody// Am J Respir Crit Care Med. 1996 October; 154(4 Pt 1):850-7]. A solution of leukotriene D4 (LTD4, Cayman Chemical, USA) at a concentration of […] (a flow rate of 250 mL/hr) was inhaled to male guinea pigs (250-300 g) under conditions of a double-chamber plethysmograph (Emka Technologies, France) for one minute. The studied compound was administered to the animals by the intragastric route four times: 24 hours and 1 hour before and 24 hours and 45 hours after the inhalation of LTD4. The reference preparation, montelukast (0.8 mg/kg), was administered one time by the intragastric route one hour before the inhalation of LTD4. Bronchoalveolar lavage was taken 48 hours after the inhalation of LTD4, and the total lymphocyte count and leukocyte formula were determined in the lavage. The number of guinea pigs in a group was 8.
# [6] = Table 4, 14 mg/kg, 10 times of administration, n = 9
# [7] = Table 5 Experiment No. 2, 0.14 mg/kg, 6 times, n = 8
# [8] = Table 5 Experiment No. 2, 1.4 mg/kg, 6 times, n = 8
# [9] = Table 5 Experiment No. 2, 14 mg/kg, 6 times, n = 8
structure (smiles),measurement,setting,value
"CCCC1O[C@@H]2C[C@H]3[C@@H]4CCC5=CC(=O)C=C[C@]5(C)[C@H]4[C@@H](O)C[C@]3(C)[C@]2(C(=O)CO)O1 (stereo partly drawn) [Budesonide, budesonide, reference compound]","Eosinophils, content of cell elements in 1 μL of BAL",[1],204 ± 84*& in 1 μL of BAL
same,"Leukocytes, content of cell elements in 1 μL of BAL",[1],1805 ± 318*& in 1 μL of BAL
same,"Lymphocytes, content of cell elements in 1 μL of BAL",[1],37 ± 10& in 1 μL of BAL
same,"Macrophages, content of cell elements in 1 μL of BAL",[1],1230 ± 205 in 1 μL of BAL
same,"Neutrophils, content of cell elements in 1 μL of BAL",[1],334 ± 119 in 1 μL of BAL
O=C1CCCC(=O)N1CCc1ncc[nH]1 [Compound 2],Eosinophils in BAL,[2]; [6],1.30 ± 0.29*& 10^9/L
same,Lymphocytes in BAL,[2]; [6],1.53 ± 0.50* 10^9/L
same,Monocytes in BAL,[2]; [6],0.60 ± 0.14* 10^9/L
same,Neutrophils in BAL,[2]; [6],1.05 ± 0.16*& 10^9/L
same,Cytosis in BAL,[2]; [7],0.55 ± 0.09*& 10^9/L
same,Eosinophils in BAL,[2]; [7],0.20 ± 0.03*& 10^9/L
same,Lymphocytes in BAL,[2]; [7],0.07 ± 0.02& 10^9/L
same,Monocytes in BAL,[2]; [7],0.24 ± 0.06*& 10^9/L
same,Neutrophils in BAL,[2]; [7],0.03 ± 0.008*& 10^9/L
same,Cytosis in BAL,[2]; [8],0.63 ± 0.09*& 10^9/L
same,Eosinophils in BAL,[2]; [8],0.18 ± 0.02*& 10^9/L
same,Lymphocytes in BAL,[2]; [8],0.06 ± 0.01& 10^9/L
same,Monocytes in BAL,[2]; [8],0.29 ± 0.07* 10^9/L
same,Neutrophils in BAL,[2]; [8],0.09 ± 0.002 10^9/L
same,Cytosis in BAL,[2]; [9],0.56 ± 0.008*& 10^9/L
same,Eosinophils in BAL,[2]; [9],0.21 ± 0.06*& 10^9/L
same,Lymphocytes in BAL,[2]; [9],0.07 ± 0.009& 10^9/L
same,Monocytes in BAL,[2]; [9],0.22 ± 0.05*& 10^9/L
same,Neutrophils in BAL,[2]; [9],0.07 ± 0.002 10^9/L
same,Banded neutrophils in the blood,[3]; 0.14 mg/kg,0.18 ± 0.04 10^9/L
same,Basophils in the blood,[3]; 0.14 mg/kg,0 ± 0 10^9/L
same,Cytosis in the blood,[3]; 0.14 mg/kg,7.80 ± 0.77*& 10^9/L
same,Eosinophils in the blood,[3]; 0.14 mg/kg,0.09 ± 0.03& 10^9/L
same,Lymphocytes in the blood,[3]; 0.14 mg/kg,3.95 ± 0.54& 10^9/L
same,Monocytes in the blood,[3]; 0.14 mg/kg,0.18 ± 0.06 10^9/L
same,Segmented neutrophils in the blood,[3]; 0.14 mg/kg,3.41 ± 0.41*& 10^9/L
same,Banded neutrophils in the blood,[3]; 1.4 mg/kg,0.21 ± 0.03 10^9/L
same,Basophils in the blood,[3]; 1.4 mg/kg,0 ± 0 10^9/L
same,Cytosis in the blood,[3]; 1.4 mg/kg,7.70 ± 0.40*& 10^9/L
same,Eosinophils in the blood,[3]; 1.4 mg/kg,0.1 ± 0.03& 10^9/L
same,Lymphocytes in the blood,[3]; 1.4 mg/kg,3.68 ± 0.25& 10^9/L
same,Monocytes in the blood,[3]; 1.4 mg/kg,0.18 ± 0.06 10^9/L
same,Segmented neutrophils in the blood,[3]; 1.4 mg/kg,3.53 ± 0.37*& 10^9/L
same,Banded neutrophils in the blood,[3]; 14 mg/kg,0.17 ± 0.04 10^9/L
same,Basophils in the blood,[3]; 14 mg/kg,0 ± 0 10^9/L
same,Cytosis in the blood,[3]; 14 mg/kg,6.93 ± 0.77& 10^9/L
same,Eosinophils in the blood,[3]; 14 mg/kg,0.1 ± 0.04& 10^9/L
same,Lymphocytes in the blood,[3]; 14 mg/kg,3.51 ± 0.41& 10^9/L
same,Monocytes in the blood,[3]; 14 mg/kg,0.24 ± 0.08 10^9/L
same,Segmented neutrophils in the blood,[3]; 14 mg/kg,2.9 ± 0.38& 10^9/L
same,"The number of animals with moderate bronchospasm (without acute phase, with subacute phase, with breath management)",[4]; 0.14 mg/kg,1
same,"The number of animals with moderate bronchospasm (without acute phase, with subacute phase, without breath management)",[4]; 0.14 mg/kg,1
same,The number of animals with severe bronchospasm (in acute and subacute phase),[4]; 0.14 mg/kg,2
same,The number of animals without bronchospasm,[4]; 0.14 mg/kg,4
same,"The number of animals with moderate bronchospasm (without acute phase, with subacute phase, with breath management)",[4]; 1.4 mg/kg,0
same,"The number of animals with moderate bronchospasm (without acute phase, with subacute phase, without breath management)",[4]; 1.4 mg/kg,3
same,The number of animals with severe bronchospasm (in acute and subacute phase),[4]; 1.4 mg/kg,1
same,The number of animals without bronchospasm,[4]; 1.4 mg/kg,4
same,"The number of animals with moderate bronchospasm (without acute phase, with subacute phase, with breath management)",[4]; 14 mg/kg,1
same,"The number of animals with moderate bronchospasm (without acute phase, with subacute phase, without breath management)",[4]; 14 mg/kg,0
same,The number of animals with severe bronchospasm (in acute and subacute phase),[4]; 14 mg/kg,2
same,The number of animals without bronchospasm,[4]; 14 mg/kg,5
"CC(C)(O)c1ccccc1CC[C@@H](SCC1(CC(=O)O)CC1)c1cccc(/C=C/c2ccc3ccc(Cl)cc3n2)c1 [Montelukast, montelukast, reference compound]","Eosinophils, content of cell elements in 1 μL of BAL",[5],618 ± 116*& in 1 μL of BAL
same,"Leukocytes, content of cell elements in 1 μL of BAL",[5],24065 ± 415*& in 1 μL of BAL
same,"Lymphocytes, content of cell elements in 1 μL of BAL",[5],96 ± 39 in 1 μL of BAL
same,"Macrophages, content of cell elements in 1 μL of BAL",[5],1519 ± 263 in 1 μL of BAL
same,"Neutrophils, content of cell elements in 1 μL of BAL",[5],173 ± 41 in 1 μL of BAL
O=C1CCCC(=O)N1CCc1nccs1 [Compound 6],Eosinophils in BAL,[2]; [6],0.60 ± 0.21*& 10^9/L
same,Lymphocytes in BAL,[2]; [6],1.03 ± 0.24* 10^9/L
same,Monocytes in BAL,[2]; [6],0.83 ± 0.18* 10^9/L
same,Neutrophils in BAL,[2]; [6],0.97 ± 0.28* 10^9/L
